Each block holds one molecule with its values, some of them ahead of it. Calls of active or inactive are those of the source.
Experiments:
[1] = biological target: T1, Neuropeptides B/W receptor type 1 (Homo sapiens, UniProt P48145); test: Fluorescence-based dose response cell-based high throughput screening assay to identify antagonists of the G-protein coupled receptor 7 (GPR7). [Related pubchem assays: 1952 (Screening assay (GPR7 antagonists).), 1880 (Summary AID.)]; type: functional
T1 sequence (P48145 whole entry): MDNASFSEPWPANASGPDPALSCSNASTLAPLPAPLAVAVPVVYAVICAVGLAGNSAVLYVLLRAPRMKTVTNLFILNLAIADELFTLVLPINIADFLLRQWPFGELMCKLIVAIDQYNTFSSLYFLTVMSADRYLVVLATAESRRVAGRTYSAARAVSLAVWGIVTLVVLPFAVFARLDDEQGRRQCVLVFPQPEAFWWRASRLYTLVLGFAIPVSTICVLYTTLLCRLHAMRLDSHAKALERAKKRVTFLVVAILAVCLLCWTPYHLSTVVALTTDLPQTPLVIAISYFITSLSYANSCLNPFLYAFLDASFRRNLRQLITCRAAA

[2] = biological target: T2, Melanin-concentrating hormone receptor 1 (Homo sapiens, UniProt Q99705); test: Fluorescence-based counterscreen for antagonists of the G-protein coupled receptor 7 (GPR7): cell-based high throughput dose response assay to identify antagonists of the melanin-concentrating hormone receptor 1 (MCHR1).; type: functional
T2 sequence (Q99705 whole entry): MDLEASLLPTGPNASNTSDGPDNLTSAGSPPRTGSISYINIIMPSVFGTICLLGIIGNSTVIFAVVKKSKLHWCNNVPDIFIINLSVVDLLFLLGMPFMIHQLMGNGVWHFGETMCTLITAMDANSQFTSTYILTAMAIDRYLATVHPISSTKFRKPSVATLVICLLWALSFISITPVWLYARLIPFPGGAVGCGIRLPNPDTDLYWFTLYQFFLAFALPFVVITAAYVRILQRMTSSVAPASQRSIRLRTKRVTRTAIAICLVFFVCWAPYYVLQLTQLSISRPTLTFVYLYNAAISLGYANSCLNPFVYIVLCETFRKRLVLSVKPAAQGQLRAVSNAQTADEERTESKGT

[3] = biological target: T2, Melanin-concentrating hormone receptor 1; test: Late-stage fluorescence-based counterscreen for antagonists of the G-protein coupled receptor 7 (GPR7): cell-based dose response assay to identify antagonists of the melanin-concentrating hormone receptor 1 (MCHR1). [Related pubchem assays (depositor defined):AID1861, AID1880, AID1952, AID2148, AID2251, AID2257, AID485339]; type: functional
[4] = biological target: Beta-2 adrenergic receptor (Homo sapiens, UniProt P07550); test: beta2AR agonists driving receptor internalization, dose response, cell-based, FAP fluorogen, flow cytometry, cherry pick 1 (AID 588763); type: functional
Beta-2 adrenergic receptor, sequence (P07550 whole entry): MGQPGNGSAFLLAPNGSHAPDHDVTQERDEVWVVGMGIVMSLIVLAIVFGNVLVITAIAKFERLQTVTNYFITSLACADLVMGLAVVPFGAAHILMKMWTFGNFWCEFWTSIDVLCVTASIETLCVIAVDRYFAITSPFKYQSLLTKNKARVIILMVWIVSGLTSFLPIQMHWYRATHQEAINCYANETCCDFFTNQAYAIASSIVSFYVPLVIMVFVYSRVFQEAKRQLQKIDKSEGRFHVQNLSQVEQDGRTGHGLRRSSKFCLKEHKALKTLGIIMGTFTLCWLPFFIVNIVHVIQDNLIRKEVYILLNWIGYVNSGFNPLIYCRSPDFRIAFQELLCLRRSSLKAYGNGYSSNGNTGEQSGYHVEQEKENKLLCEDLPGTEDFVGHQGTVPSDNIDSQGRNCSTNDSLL

X-box-binding protein 1 = X-box-binding protein 1 (Homo sapiens, UniProt P17861); type: functional, Cricetulus griseus;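 also: confirmatory dose-response counter-screen serving a CHOP assay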
X-box-binding protein 1, sequence (P17861 whole entry): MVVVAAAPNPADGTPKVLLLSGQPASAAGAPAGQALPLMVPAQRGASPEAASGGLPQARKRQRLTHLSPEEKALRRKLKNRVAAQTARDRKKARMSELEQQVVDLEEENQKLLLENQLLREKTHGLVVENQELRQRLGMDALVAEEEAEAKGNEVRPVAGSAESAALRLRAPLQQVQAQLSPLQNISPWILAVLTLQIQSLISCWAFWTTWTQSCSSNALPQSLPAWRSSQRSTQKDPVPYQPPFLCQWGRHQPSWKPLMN

Cytochrome P450 2C9 = Cytochrome P450 2C9 (Homo sapiens, UniProt P11712); conditions: Potency
Cytochrome P450 2C9, sequence (P11712 whole entry): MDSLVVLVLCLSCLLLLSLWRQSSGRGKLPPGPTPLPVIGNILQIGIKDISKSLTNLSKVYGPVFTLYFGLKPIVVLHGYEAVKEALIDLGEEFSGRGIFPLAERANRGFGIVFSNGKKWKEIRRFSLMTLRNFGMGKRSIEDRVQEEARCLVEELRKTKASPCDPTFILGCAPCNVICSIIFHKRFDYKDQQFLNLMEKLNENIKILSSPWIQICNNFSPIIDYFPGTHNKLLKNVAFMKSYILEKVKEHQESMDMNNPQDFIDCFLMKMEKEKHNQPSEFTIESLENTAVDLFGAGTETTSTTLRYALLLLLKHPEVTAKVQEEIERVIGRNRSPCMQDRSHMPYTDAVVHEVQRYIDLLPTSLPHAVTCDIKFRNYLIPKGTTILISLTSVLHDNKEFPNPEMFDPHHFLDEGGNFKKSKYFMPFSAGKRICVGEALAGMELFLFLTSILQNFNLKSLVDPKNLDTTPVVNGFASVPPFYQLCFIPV

Cytochrome P450 2C19 = Cytochrome P450 2C19 (Homo sapiens, UniProt P33261); test: qHTS Assay for Inhibitors and Substrates of Cytochrome P450 2C19. [Related pubchem assays: 410 ]; type: ADME; conditions: read-out: Potency
Cytochrome P450 2C19, sequence (P33261 whole entry): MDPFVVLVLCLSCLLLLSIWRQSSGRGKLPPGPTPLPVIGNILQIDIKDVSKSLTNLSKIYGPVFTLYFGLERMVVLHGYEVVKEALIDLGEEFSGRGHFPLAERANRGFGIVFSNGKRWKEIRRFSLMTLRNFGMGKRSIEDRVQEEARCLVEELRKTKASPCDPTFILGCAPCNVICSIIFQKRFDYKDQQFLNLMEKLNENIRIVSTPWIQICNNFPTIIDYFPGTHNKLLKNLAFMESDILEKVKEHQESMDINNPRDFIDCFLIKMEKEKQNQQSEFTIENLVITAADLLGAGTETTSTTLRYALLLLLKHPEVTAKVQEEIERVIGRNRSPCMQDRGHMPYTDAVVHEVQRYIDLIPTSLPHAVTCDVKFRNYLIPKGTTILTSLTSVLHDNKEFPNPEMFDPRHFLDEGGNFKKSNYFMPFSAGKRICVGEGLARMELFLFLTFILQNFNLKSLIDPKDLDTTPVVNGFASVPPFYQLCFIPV

[5] = biological target: G-protein coupled receptor 35 (Homo sapiens, UniProt Q9HC97); test: GPR35 antagonists blocking zaprinast-driven arrestin recruitment, primary screen, imaging, U2OS, beta-arrestin-GFP, zaprinast agonist (AID 2058); type: functional;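 also: antagonist potency meaning inhibition of agonist-induced arrestin redistribution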
G-protein coupled receptor 35, sequence (Q9HC97 whole entry): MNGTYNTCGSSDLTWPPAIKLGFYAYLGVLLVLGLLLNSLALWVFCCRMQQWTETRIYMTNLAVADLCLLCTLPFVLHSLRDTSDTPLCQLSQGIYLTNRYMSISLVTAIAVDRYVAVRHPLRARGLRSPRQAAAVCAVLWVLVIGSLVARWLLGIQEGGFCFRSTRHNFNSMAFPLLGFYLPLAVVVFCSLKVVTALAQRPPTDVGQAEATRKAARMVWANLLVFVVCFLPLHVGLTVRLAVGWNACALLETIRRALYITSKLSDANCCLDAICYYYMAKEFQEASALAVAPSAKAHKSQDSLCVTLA

SMILES: COc1ccc(OCC(=O)Nc2ccc3c(c2)C(=O)NC3=O)cc1
- IC50 [1]: > 43.8 µM (not active)
- IC50 [2]: > 43.8 µM (not active)

SMILES: Cc1ccc(C(=O)N2CCCCC2)cc1S(=O)(=O)N1CCCCCC1
- IC50 [1]: > 43.8 µM (not active)
- IC50 [2]: > 43.8 µM (not active)

SMILES: CCCCCCCCCCCCCCCCOC[C@@H](COCC(F)(F)F)OP(=O)(O)OCO
- AC50 (Cytochrome P450 2C9): 39.8 µM (inconclusive)
- AC50 (Cytochrome P450 2C19): 0.002 µM (inconclusive)

SMILES: CN1C=CC2=C(C#N)C(N)C(C#N)(C#N)C(c3ccccc3)C2C1 (stereo not given)
- IC50 [5]: 1.01 µM (active)

Next, values leading:

- IC50 [3]: > 20 µM (inactive)
SMILES: COc1ccc(Oc2c(/C=N/O)cnn(-c3ccc(C(C)C)cc3)c2=O)cc1

- EC50 [4]: 0.0454 µM (active)
- Absolute IC50 (XBP1) (X-box-binding protein 1): 10 µM
SMILES: CCN(CCO)c1ncnc2c1sc1nc(CC(C)C)c3c(c12)CC(C)(C)OC3

From ChEMBL document CHEMBL1201862, “PubChem BioAssay data set” (2004)
